Data published in ChEMBL document CHEMBL4418299, “Compounds useful as csf1 modulators” (2016).

Target: Macrophage colony-stimulating factor 1 receptor (Homo sapiens, UniProt P07333)
Assay: Displacement of kinase tracer 236 from recombinant human His-tagged CSF1R cytoplasmic domain (538 to 910 residues) expressed in baculovirus-infected insect cells measured after 5 hrs by TR-FRET based LanthaScreen assay

Sequence of Macrophage colony-stimulating factor 1 receptor (P07333 whole entry, the tested form may be a part): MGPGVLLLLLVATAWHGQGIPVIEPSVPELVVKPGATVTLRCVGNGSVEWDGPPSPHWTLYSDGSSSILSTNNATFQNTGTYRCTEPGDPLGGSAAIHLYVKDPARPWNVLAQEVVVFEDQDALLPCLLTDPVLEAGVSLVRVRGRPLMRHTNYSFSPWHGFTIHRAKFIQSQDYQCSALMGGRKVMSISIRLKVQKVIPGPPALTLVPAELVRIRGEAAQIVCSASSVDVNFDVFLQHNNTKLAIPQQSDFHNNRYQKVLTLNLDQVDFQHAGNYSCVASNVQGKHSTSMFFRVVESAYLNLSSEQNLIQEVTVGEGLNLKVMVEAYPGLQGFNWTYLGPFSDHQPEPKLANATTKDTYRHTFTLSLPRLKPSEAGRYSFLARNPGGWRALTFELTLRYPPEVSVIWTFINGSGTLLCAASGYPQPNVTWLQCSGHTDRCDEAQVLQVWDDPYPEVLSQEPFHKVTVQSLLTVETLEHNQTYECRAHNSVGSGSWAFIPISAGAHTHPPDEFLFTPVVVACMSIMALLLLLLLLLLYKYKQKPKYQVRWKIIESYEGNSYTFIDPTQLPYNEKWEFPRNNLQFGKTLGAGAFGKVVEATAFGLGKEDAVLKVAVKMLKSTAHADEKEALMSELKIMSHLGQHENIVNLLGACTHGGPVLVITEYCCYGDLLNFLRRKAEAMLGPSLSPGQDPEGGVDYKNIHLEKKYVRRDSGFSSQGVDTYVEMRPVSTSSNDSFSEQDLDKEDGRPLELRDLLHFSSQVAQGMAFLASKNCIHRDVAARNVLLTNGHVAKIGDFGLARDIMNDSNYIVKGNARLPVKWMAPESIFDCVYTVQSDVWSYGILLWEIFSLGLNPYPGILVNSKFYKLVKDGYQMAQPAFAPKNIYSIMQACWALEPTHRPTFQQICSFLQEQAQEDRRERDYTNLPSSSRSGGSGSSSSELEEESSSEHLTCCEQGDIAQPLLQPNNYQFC

| Compound | IC50 |
| --- | --- |
| COc1cc(-n2c3c(c4ncnc(N)c42)CCC3)ccc1NC(=O)Cn1cnc(C(F)(F)F)c1 | 0.01 to 0.2 µM |
| COc1cc(-n2c3c(c4ncnc(N)c42)CCC3)ccc1NC(=O)Cc1cc(C(F)F)on1 | < 0.01 µM |
| COc1cc(-n2c3c(c4ncnc(N)c42)CCC3)ccc1NC(=O)Cc1nc(C(C)C)no1 | < 0.01 µM |
| Nc1ncnc2c3c(n(-c4ccc(NC(=O)Cc5cc(C(F)(F)F)no5)cc4)c12)CCC3 | < 0.01 µM |
| COc1cc(-n2c3c(c4ncnc(N)c42)CCC3)ccc1NC(=O)Cn1cc(C(F)(F)F)cn1 | < 0.01 µM |
| Nc1ncnc2c3c(n(-c4ccc(NC(=O)Cn5ccc(C(F)(F)F)n5)cc4)c12)COC3 | 0.01 to 0.2 µM |
| Nc1ncnc2c3c(n(-c4ccc(NC(=O)Cn5ccc(C(F)(F)F)n5)cc4)c12)CCC3 | < 0.01 µM |
| COc1cc(-n2c3c(c4ncnc(N)c42)CCC3)ccc1NC(=O)Cc1ccc(C(=O)N(C)C)cc1 | 0.01 to 0.2 µM |
| COc1cc(-n2c3c(c4ncnc(N)c42)CCC3)ccc1NC(=O)Cc1nnccc1C(F)(F)F | > 0.2 µM |
| COc1cc(-n2c3c(c4ncnc(N)c42)CCC3)ccc1CC(=O)Nc1ccc(C(C)(C)O)cn1 | 0.01 to 0.2 µM |
| COc1cc(CC(=O)Nc2ccc(-n3c4c(c5ncnc(N)c53)CCC4)cc2OC)cc(OC)c1 | < 0.01 µM |
| COc1cc(-n2c3c(c4ncnc(N)c42)CCC3)ccc1CC(=O)Nc1cnc(C(F)(F)F)nc1 | 0.01 to 0.2 µM |
| COc1cc(-n2c3c(c4ncnc(N)c42)COC3)ccc1NC(=O)Cn1cnc(C(F)(F)F)c1 | 0.01 to 0.2 µM |
| COc1cc(-n2c3c(c4ncnc(N)c42)CCC3)ccc1NC(=O)Cc1cc(C(F)(F)F)on1 | < 0.01 µM |
| COc1cc(-n2c3c(c4ncnc(N)c42)CCC3)ccc1NC(=O)Cc1c(C)noc1C | > 0.2 µM |
| COc1cc(-n2c3c(c4ncnc(N)c42)CCC3)ccc1NC(=O)Cc1cc(C(F)(F)F)no1 | < 0.01 µM |
| COc1cc(-n2c3c(c4ncnc(N)c42)CCC3)ccc1CC(=O)Nc1nc(C(F)(F)F)cs1 | < 0.01 µM |
| COc1cc(-n2c3c(c4ncnc(N)c42)CCC3)ccc1NC(=O)Cc1cc(C(F)(F)F)cnn1 | 0.01 to 0.2 µM |
| COc1cc(-n2c3c(c4ncnc(N)c42)COC3)ccc1NC(=O)Cc1ccc(C)cc1F | < 0.01 µM |
| COc1cc(-n2c3c(c4ncnc(N)c42)CCC3)ccc1NC(=O)Cc1cnn(C)c1C(F)(F)F | < 0.01 µM |
| Nc1ncnc2c3c(n(-c4ccc(NC(=O)Cc5ccn(C(F)F)n5)cc4)c12)COC3 | > 0.2 µM |
| COc1cc(-n2c3c(c4ncnc(N)c42)COC3)ccc1CC(=O)Nc1ccc(C(F)(F)F)nc1 | < 0.01 µM |
| COc1cc(-n2c3c(c4ncnc(N)c42)CCC3)ccc1CC(=O)Nc1cc(C(F)(F)F)cnn1 | < 0.01 µM |
| COc1cc(-n2c3c(c4ncnc(N)c42)CCC3)ccc1NC(=O)CN1CCCc2cc(F)ccc21 | 0.01 to 0.2 µM |

| Compound | IC50 |
| --- | --- |
| Nc1ncnc2c3c(n(-c4ccc(NC(=O)Cc5ccccc5)c(C(F)(F)F)c4)c12)CCC3 | > 0.2 µM |
| COc1ccc(CC(=O)Nc2ccc(-n3c4c(c5ncnc(N)c53)COC4)cc2OC)c(F)c1 | 0.01 to 0.2 µM |
| COc1cc(-n2c3c(c4ncnc(N)c42)CCC3)ccc1CC(=O)Nc1ccn(C)n1 | > 0.2 µM |
| COc1cc(-n2c3c(c4ncnc(N)c42)COC3)ccc1NC(=O)Cc1cccc(OC)c1C | < 0.01 µM |
| COc1cc(-n2c3c(c4ncnc(N)c42)COC3)ccc1CC(=O)Nc1ccccc1 | > 0.2 µM |
| COc1cc(-n2c3c(c4ncnc(N)c42)COC3)ccc1NC(=O)Cc1cnn(C)c1C(F)(F)F | > 0.2 µM |
| CC(C)(C)c1cnn(CC(=O)Nc2ccc(-n3c4c(c5ncnc(N)c53)COC4)cc2)c1 | < 0.01 µM |
| Nc1ncnc2c3c(n(-c4ccc(NC(=O)Cc5nnc(C(F)(F)F)o5)cc4)c12)CCC3 | > 0.2 µM |
| Nc1ncnc2c3c(n(-c4ccc(NC(=O)Cn5ccc(C6CC6)n5)cc4)c12)CCC3 | < 0.01 µM |
| COc1cc(-n2c3c(c4ncnc(N)c42)CCC3)ccc1NC(=O)Cn1ccc(C2CC2)n1 | < 0.01 µM |
| COc1cc(-n2c3c(c4ncnc(N)c42)COC3)ccc1NC(=O)Cc1csc(C(C)C)n1 | 0.01 to 0.2 µM |
| COc1cc(-n2c3c(c4ncnc(N)c42)CCC3)ccc1NC(=O)Cc1csc(C(C)C)n1 | < 0.01 µM |
| COc1cc(-n2c3c(c4ncnc(N)c42)CCC3)ccc1NC(=O)Cn1nc(C)cc1C(F)(F)F | 0.01 to 0.2 µM |
| COc1cc(-n2c3c(c4ncnc(N)c42)CCC3)ccc1NC(=O)Cn1ccc(C(F)(F)F)n1 | < 0.01 µM |
| COc1cc(-n2c3c(c4ncnc(N)c42)CCC3)ccc1CC(=O)Nc1ccc(C(C)(C)OC)nc1 | < 0.01 µM |
| COc1cc(-n2c3c(c4ncnc(N)c42)CCC3)ccc1NC(=O)Cn1ccc(C(C)(C)C)n1 | < 0.01 µM |
| CC(C)c1noc(CC(=O)Nc2ccc(-n3c4c(c5ncnc(N)c53)CCC4)cc2)n1 | 0.01 to 0.2 µM |
| COc1cc(CC(=O)Nc2ccc(-n3c4c(c5ncnc(N)c53)COC4)cc2OC)cc(OC)c1 | 0.01 to 0.2 µM |
| COc1cc(-n2c3c(c4ncnc(N)c42)COC3)ccc1NC(=O)Cn1ccc(C(F)(F)F)n1 | 0.01 to 0.2 µM |
| COc1cc(-n2c3c(c4ncnc(N)c42)CCC3)ccc1CC(=O)Nc1ccc(C(C)(C)C)cc1 | < 0.01 µM |
| COc1cc(-n2c3c(c4ncnc(N)c42)CCC3)ccc1NC(=O)CN1CCOc2ccccc21 | 0.01 to 0.2 µM |
| COc1cc(-n2c3c(c4ncnc(N)c42)CCC3)ccc1NC(=O)Cc1ccc2c(c1)CN(C)C2=O | > 0.2 µM |
| COc1cc(-n2c3c(c4ncnc(N)c42)CCC3)ccc1NC(=O)Cn1cc(C)cn1 | < 0.01 µM |
| COc1cc(-n2c3c(c4ncnc(N)c42)COC3)ccc1NC(=O)Cc1csc(C(C)(C)C)n1 | 0.01 to 0.2 µM |

More lines, now with the values ahead:

| IC50 | Compound |
| --- | --- |
| < 0.01 µM | COc1cc(-n2c3c(c4ncnc(N)c42)COC3)ccc1NC(=O)Cc1ccc(C)c(F)c1 |
| > 0.2 µM | CNC(=O)c1ccc(CC(=O)Nc2ccc(-n3c4c(c5ncnc(N)c53)CCC4)cc2OC)cc1 |
| 0.01 to 0.2 µM | COc1cc(-n2c3c(c4ncnc(N)c42)COC3)ccc1NC(=O)Cn1cc(C(C)(C)C)cn1 |
| 0.01 to 0.2 µM | COc1cc(-n2c3c(c4ncnc(N)c42)COC3)ccc1NC(=O)Cn1cc(C(F)(F)F)cn1 |
| < 0.01 µM | COc1cc(-n2c3c(c4ncnc(N)c42)CCC3)ccc1CC(=O)Nc1ccc(C(C)(C)O)nc1 |
| < 0.01 µM | COc1ncc(NC(=O)Cc2ccc(-n3c4c(c5ncnc(N)c53)CCC4)cc2)cc1F |
| > 0.2 µM | COc1cc(-n2c3c(c4ncnc(N)c42)CCC3)ccc1CC(=O)Nc1cnn(C)c1 |
| 0.01 to 0.2 µM | COc1cc(-n2c3c(c4ncnc(N)c42)CCC3)ccc1CC(=O)Nc1ccc(C2(O)COC2)cc1 |
| 0.01 to 0.2 µM | CC(C)(C)c1ccn(CC(=O)Nc2ccc(-n3c4c(c5ncnc(N)c53)COC4)cc2)n1 |
| < 0.01 µM | COc1cc(-n2c3c(c4ncnc(N)c42)CCC3)ccc1CC(=O)Nc1ccc2c(c1)COC2(C)C |
| 0.01 to 0.2 µM | Nc1ncnc2c3c(n(-c4ccc(NC(=O)Cc5cnn(C(F)F)c5)cc4)c12)CCC3 |
| 0.01 to 0.2 µM | Nc1ncnc2c3c(n(-c4ccc(NC(=O)Cc5ccn(C(F)F)n5)cc4)c12)CCC3 |
| < 0.01 µM | COc1cc(-n2c3c(c4ncnc(N)c42)CCC3)ccc1NC(=O)Cc1coc(C(C)C)n1 |
| > 0.2 µM | COc1cc(-n2c3c(c4ncnc(N)c42)COC3)ccc1NC(=O)Cn1nc(C)cc1C(F)(F)F |
| 0.01 to 0.2 µM | COc1cc(-n2c3c(c4ncnc(N)c42)CCC3)ccc1NC(=O)Cn1nc(C)cc1C |
| < 0.01 µM | Cn1ncc(CC(=O)Nc2ccc(-n3c4c(c5ncnc(N)c53)CCC4)cc2)c1C(F)(F)F |
| 0.01 to 0.2 µM | COc1cc(-n2c3c(c4ncnc(N)c42)COC3)ccc1NC(=O)Cn1ccc(C(C)(C)C)n1 |
| < 0.01 µM | Nc1ncnc2c3c(n(-c4ccc(NC(=O)Cn5cnc(C(F)(F)F)c5)cc4)c12)COC3 |
| < 0.01 µM | COc1cc(-n2c3c(c4ncnc(N)c42)COC3)ccc1NC(=O)Cn1ccc(C(C)C)n1 |
| 0.01 to 0.2 µM | COc1cc(-n2c3c(c4ncnc(N)c42)CCC3)ccc1NC(=O)Cc1ccc(C(C)(C)C)cc1 |
| < 0.01 µM | CC(C)c1ccn(CC(=O)Nc2ccc(-n3c4c(c5ncnc(N)c53)CCC4)cc2)n1 |
| < 0.01 µM | Nc1ncnc2c3c(n(-c4ccc(NC(=O)Cn5cc(C(F)(F)F)cn5)cc4)c12)CCC3 |

| IC50 | Compound |
| --- | --- |
| < 0.01 µM | COc1cc(NC(=O)Cc2ccc(-n3c4c(c5ncnc(N)c53)CCC4)cc2OC)cc(C(F)(F)F)c1 |
| 0.01 to 0.2 µM | COc1cc(-n2c3c(c4ncnc(N)c42)COC3)ccc1NC(=O)Cn1ncc2ccccc21 |
| < 0.01 µM | Nc1ncnc2c3c(n(-c4ccc(NC(=O)Cn5cnc(C(F)(F)F)c5)cc4)c12)CCC3 |
| 0.01 to 0.2 µM | COc1cc(-n2c3c(c4ncnc(N)c42)CCC3)ccc1NC(=O)Cc1cc(C(F)(F)F)nn1C |
| < 0.01 µM | COc1cc(-n2c3c(c4ncnc(N)c42)CCC3)ccc1CC(=O)Nc1ccc2nonc2c1 |
| 0.01 to 0.2 µM | COc1cc(-n2c3c(c4ncnc(N)c42)CCC3)ccc1NC(=O)Cc1cnn(C)c1 |
| 0.01 to 0.2 µM | COc1cc(-n2c3c(c4ncnc(N)c42)CCC3)ccc1NC(=O)Cn1cc(C(F)(F)F)nc1C |
| 0.01 to 0.2 µM | Nc1ncnc2c3c(n(-c4ccc(NC(=O)Cc5cc(C(F)F)on5)cc4)c12)CCC3 |
| < 0.01 µM | COc1cc(-n2c3c(c4ncnc(N)c42)CCC3)ccc1NC(=O)Cc1nnn(C(C)(C)C)n1 |
| < 0.01 µM | COc1cc(-n2c3c(c4ncnc(N)c42)CCC3)ccc1CC(=O)Nc1cnc(OC)c(F)c1 |
| < 0.01 µM | COc1cc(-n2c3c(c4ncnc(N)c42)CCC3)ccc1NC(=O)Cc1cnn(C(F)F)c1 |
| < 0.01 µM | Cn1nc(C(F)(F)F)cc1CC(=O)Nc1ccc(-n2c3c(c4ncnc(N)c42)CCC3)cc1 |
| 0.01 to 0.2 µM | Nc1ncnc2c3c(n(-c4ccc(NC(=O)Cn5cc(C(F)(F)F)cn5)cc4)c12)COC3 |
| > 0.2 µM | COc1cc(-n2c3c(c4ncnc(N)c42)CCC3)ccc1NC(=O)Cc1ccn(C)n1 |
| < 0.01 µM | CC(C)(C)c1cnn(CC(=O)Nc2ccc(-n3c4c(c5ncnc(N)c53)CCC4)cc2)c1 |
| < 0.01 µM | COc1cc(-n2c3c(c4ncnc(N)c42)CCC3)ccc1NC(=O)Cc1ccn(C(F)F)n1 |
| < 0.01 µM | Nc1ncnc2c3c(n(-c4ccc(NC(=O)Cc5cc(C(F)(F)F)on5)cc4)c12)CCC3 |
| 0.01 to 0.2 µM | COc1cc(-n2c3c(c4ncnc(N)c42)COC3)ccc1NC(=O)Cc1cc(C(F)(F)F)on1 |
| > 0.2 µM | Nc1ncnc2c3c(n(-c4ccc(NC(=O)Cc5ccccc5)c(OC(F)(F)F)c4)c12)CCC3 |
| > 0.2 µM | Nc1ncnc2c3c(n(-c4ccc(NC(=O)Cc5ccccc5)c(Cl)c4)c12)CCC3 |
| 0.01 to 0.2 µM | CNC(=O)c1cccc(NC(=O)Cc2ccc(-n3c4c(c5ncnc(N)c53)CCC4)cc2OC)c1 |
